From patent publication US20200170244A1, “METHODS FOR PRESERVING, TRANSPORTING AND STORING LIVING BIOLOGICAL MATERIALS” (priority 2013, published 2020)
“Also recorded” adds a separate entry of the source.

System: keratinocytes
Experiment: Effect of vanadium compounds on proliferation of keratinocytes (hair follicle culture, cell count)
Type: cell-based
Details: 14 days at 31° C.; for amount of proliferated keratinocytes (number of cells per ml of culture medium): 1 mg/ml in basic SFK growth serum, relative to control SFK without vanadium compound
Procedure: Method: The hair follicles were transferred to a 24-well culture disk containing dSFK with […] penicillin (Life Technologies B.V. Breda, The Netherlands) and 0.25 μg/ml streptomycin (Life Technologies B.V. Breda, The Netherlands), and placed for 14 days in a culture medium at 31° C. in a humidified atmosphere containing 5% CO2. Three different culture medium were used: • Treatment group oxovanadium (OVAN): The culture medium is a composition comprising a basic SFK growth serum (purchased from the supplier SFK, Enschede The Netherlands) supplemented with either 1 mg/ml of OVAN. • Treatment group bis (maltolato) oxovanadium (BMOV): The culture medium is a composition comprising a basic SFK growth serum (purchased from the supplier SFK, Enschede The Netherlands) supplemented with either 1 mg/ml of BMOV. • Control group: The control situation consists of a composition comprising the SFK basic growth serum but without the vanadium compounds (i.e. OVAN or BMOV).
The respective culture media were carefully removed every three days and replaced by fresh culture media. The cells remained attached to the hair follicles during this culture period. After 14 days the culture medium was removed and replaced by a 0.5 mg/ml trypsin, 0.2 mg/ml EDTA (ethylene diaminetetraacetic acid) solution (Life Technologies B.V. Breda, The Netherlands), and incubated for 5 minutes at 37° C. in this medium. After this incubation period clusters of cells were released from the hair follicles. These were harvested by centrifugation at 300 g at 4° C. for 5 minutes in a Eppendorf 5804R Centrifuge (VWR International, The Netherlands). Number of cells were counted and expressed as amount of proliferated cells per ml of culture medium.

Molecule	proliferated keratinocytes, BMOV compared with OVAN (1 mg/ml each in basic SFK growth serum)	amount of proliferated keratinocytes (number of cells per ml of culture medium)
Cc1occc(=O)c1[O-].Cc1occc(=O)c1[O-].[O]=[V+2] [BMOV, bis(maltolato)oxovanadium]	more potent than OVAN; also recorded: greater number of proliferated cells relative to treatment with OVAN	significantly increased; also recorded: enhanced proliferation
oxovanadium		significantly increased; also recorded: enhanced proliferation
